Data taken from ChEMBL document CHEMBL3044788, “α-(Substituted-phenoxyacetoxy)-α-heterocyclylmethylphosphonates: synthesis, herbicidal activity, inhibition on pyruvate dehydrogenase complex (PDHc), and application as postemergent herbicide against broadleaf weeds” (J Agric Food Chem, 2013).

What was measured:
[1] = system: Chenopodium album; assay: Herbicidal activity against Chenopodium album assessed as relative growth inhibition at 1200 g/ha in greenhouse by post-emergence herbicidal activity assay; assay type: functional; conditions: read-out: GI
[2] = system: Oryza sativa; assay: Herbicidal activity against Oryza sativa (rice) assessed as relative growth inhibition at 900 g/ha in greenhouse by postemergence herbicidal activity assay; assay type: organism-based; conditions: in vivo, other
[3] = system: Amaranthus spinosus; assay: Herbicidal activity against Amaranthus spinosus assessed as relative growth inhibition at 50 g/ha in greenhouse by postemergence herbicidal activity assay; assay type: functional; conditions: post-emergence, read-out: GI
[4] = system: Polygonum aviculare; assay: Herbicidal activity against Polygonum aviculare assessed as relative growth inhibition at 900 g/ha in greenhouse by post-emergence herbicidal activity assay; assay type: functional; conditions: read-out: GI
[5] = system: Zea mays; assay: Herbicidal activity against Zea mays (maize) assessed as relative growth inhibition at 450 g/ha in greenhouse by postemergence herbicidal activity assay; assay type: organism-based; conditions: in vivo, other
[6] = system: Zea mays; assay: Herbicidal activity against Zea mays (maize) assessed as relative growth inhibition at 900 g/ha in greenhouse by postemergence herbicidal activity assay; assay type: organism-based; conditions: in vivo, other
[7] = system: Zea mays; assay: Herbicidal activity against Zea mays (maize) assessed as relative growth inhibition at 200 g/ha in greenhouse by postemergence herbicidal activity assay; assay type: organism-based; conditions: in vivo, other
[8] = system: Amaranthus blitum; assay: Herbicidal activity against Amaranthus blitum assessed as relative growth inhibition at 100 g/ha in greenhouse by post-emergence herbicidal activity assay; assay type: functional; conditions: read-out: GI
[9] = system: Chenopodium album; assay: Herbicidal activity against Chenopodium album assessed as relative growth inhibition at 300 g/ha in greenhouse by post-emergence herbicidal activity assay; assay type: functional; conditions: read-out: GI
[10] = system: Amaranthus spinosus; assay: Herbicidal activity against Amaranthus spinosus assessed as relative growth inhibition at 600 g/ha in greenhouse by postemergence herbicidal activity assay; assay type: functional; conditions: post-emergence, read-out: GI
[11] = system: Amaranthus blitum; assay: Herbicidal activity against Amaranthus blitum assessed as relative growth inhibition at 450 g/ha in greenhouse by post-emergence herbicidal activity assay; assay type: functional; conditions: read-out: GI
[12] = system: Amaranthus blitum; assay: Herbicidal activity against Amaranthus blitum assessed as relative growth inhibition at 600 g/ha in greenhouse by post-emergence herbicidal activity assay; assay type: functional; conditions: read-out: GI
[13] = system: Beta vulgaris; assay: Herbicidal activity against Beta vulgaris assessed as relative growth inhibition at 1200 g/ha in greenhouse by post-emergence herbicidal activity assay; assay type: functional; conditions: read-out: GI
[14] = system: Brassica rapa subsp. oleifera; assay: Herbicidal activity against Brassica rapa subsp. oleifera assessed as inhibition of rape root growth; assay type: functional, organism-based
[15] = system: Chenopodium album; assay: Herbicidal activity against Chenopodium album assessed as relative growth inhibition at 450 g/ha in greenhouse by post-emergence herbicidal activity assay; assay type: functional; conditions: read-out: GI
[16] = system: Oryza sativa; assay: Herbicidal activity against Oryza sativa (rice) assessed as relative growth inhibition at 450 g/ha in greenhouse by postemergence herbicidal activity assay; assay type: organism-based; conditions: in vivo, other
[17] = biological target: T1, Pyruvate dehydrogenase complex (Pisum sativum, UniProt P52902+P52904); assay: Inhibition of Pisum sativum (pea) PDHc by spectrophotometric assay; assay type: protein-complex assay, Lathyrus oleraceus
T1 sequence (P52902 whole entry): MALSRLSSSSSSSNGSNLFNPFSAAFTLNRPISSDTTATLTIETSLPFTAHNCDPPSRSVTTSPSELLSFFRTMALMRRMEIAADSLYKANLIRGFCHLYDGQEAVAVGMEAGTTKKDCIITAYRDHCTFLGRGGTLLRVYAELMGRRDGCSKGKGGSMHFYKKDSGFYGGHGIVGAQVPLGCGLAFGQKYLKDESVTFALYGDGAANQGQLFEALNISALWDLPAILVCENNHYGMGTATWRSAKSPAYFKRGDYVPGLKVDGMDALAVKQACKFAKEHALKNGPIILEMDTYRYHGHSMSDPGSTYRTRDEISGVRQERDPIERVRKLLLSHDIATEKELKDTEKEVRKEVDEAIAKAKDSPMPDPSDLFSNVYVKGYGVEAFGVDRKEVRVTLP
T1 sequence (P52904 whole entry): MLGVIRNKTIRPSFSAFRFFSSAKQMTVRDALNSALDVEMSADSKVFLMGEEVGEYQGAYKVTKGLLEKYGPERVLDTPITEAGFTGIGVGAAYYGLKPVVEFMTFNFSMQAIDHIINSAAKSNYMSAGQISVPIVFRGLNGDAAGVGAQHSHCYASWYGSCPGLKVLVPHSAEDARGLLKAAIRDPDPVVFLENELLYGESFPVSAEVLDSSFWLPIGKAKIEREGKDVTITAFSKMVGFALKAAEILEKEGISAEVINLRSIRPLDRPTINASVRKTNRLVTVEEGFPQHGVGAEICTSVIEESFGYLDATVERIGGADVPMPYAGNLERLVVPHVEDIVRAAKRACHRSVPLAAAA

[18] = system: Amaranthus spinosus; assay: Herbicidal activity against Amaranthus spinosus assessed as relative growth inhibition at 450 g/ha in greenhouse by postemergence herbicidal activity assay; assay type: functional; conditions: post-emergence, read-out: GI
[19] = system: Eclipta prostrata; assay: Herbicidal activity against two to three-leaf stage Eclipta prostrata assessed as inhibition of plant growth at 150 g/ha in greenhouse by post-emergence herbicidal activity assay; assay type: functional; conditions: read-out: GI
[20] = system: Oryza sativa; assay: Herbicidal activity against Oryza sativa (rice) assessed as relative growth inhibition at 300 g/ha in greenhouse by postemergence herbicidal activity assay; assay type: organism-based; conditions: in vivo, other
[21] = system: Amaranthus blitum; assay: Herbicidal activity against Amaranthus blitum assessed as relative growth inhibition at 50 g/ha in greenhouse by post-emergence herbicidal activity assay; assay type: functional; conditions: read-out: GI
[22] = system: Echinochloa crus-galli; assay: Herbicidal activity against 2 to 3 leaf stage Echinochloa crus-galli (barnyard grass) assessed as inhibition of plant growth at 450 g/ha in greenhouse by postemergence herbicidal activity assay; assay type: functional; conditions: Echinochloa crus-galli, post-emergence; read-out: GI
[23] = system: Brassica rapa subsp. oleifera; assay: Herbicidal activity against Brassica rapa subsp. oleifera assessed as inhibition of rape root growth at 450 g/ha by pre-emergence herbicidal activity assay; assay type: functional; conditions: read-out: GI
[24] = system: Amaranthus spinosus; assay: Herbicidal activity against Amaranthus spinosus assessed as relative growth inhibition at 900 g/ha in greenhouse by postemergence herbicidal activity assay; assay type: functional; conditions: post-emergence, read-out: GI
[25] = system: Oryza sativa; assay: Herbicidal activity against two to three-leaf stage Oryza sativa (rice) assessed as inhibition of plant growth at 450 g/ha in greenhouse by postemergence herbicidal activity assay; assay type: organism-based; conditions: in vivo, other
[26] = system: Zea mays; assay: Herbicidal activity against Zea mays (maize) assessed as relative growth inhibition at 300 g/ha in greenhouse by postemergence herbicidal activity assay; assay type: organism-based; conditions: in vivo, other
[27] = system: Beta vulgaris; assay: Herbicidal activity against Beta vulgaris assessed as relative growth inhibition at 300 g/ha in greenhouse by post-emergence herbicidal activity assay; assay type: functional; conditions: read-out: GI
[28] = system: Beta vulgaris; assay: Herbicidal activity against Beta vulgaris assessed as relative growth inhibition at 100 g/ha in greenhouse by post-emergence herbicidal activity assay; assay type: functional; conditions: read-out: GI
[29] = system: Amaranthus blitum; assay: Herbicidal activity against Amaranthus blitum assessed as relative growth inhibition at 900 g/ha in greenhouse by post-emergence herbicidal activity assay; assay type: functional; conditions: read-out: GI
[30] = Inhibition of Oryza sativa (rice) PDHc by spectrophotometric assay
[31] = system: Amaranthus spinosus; assay: Herbicidal activity against Amaranthus spinosus assessed as relative growth inhibition at 100 g/ha in greenhouse by postemergence herbicidal activity assay; assay type: functional; conditions: post-emergence, read-out: GI
[32] = system: Beta vulgaris; assay: Herbicidal activity against Beta vulgaris assessed as relative growth inhibition at 600 g/ha in greenhouse by post-emergence herbicidal activity assay; assay type: functional; conditions: read-out: GI
[33] = system: Zea mays; assay: Herbicidal activity against Zea mays (maize) assessed as relative growth inhibition at 1200 g/ha in greenhouse by postemergence herbicidal activity assay; assay type: organism-based; conditions: in vivo, other
[34] = system: Chenopodium album; assay: Herbicidal activity against Chenopodium album assessed as relative growth inhibition at 200 g/ha in greenhouse by post-emergence herbicidal activity assay; assay type: functional; conditions: read-out: GI

COP(=O)(OC)C(OC(=O)COc1ccc(Cl)cc1Cl)c1ccco1 (centres undefined)
inhibition of growth at 1200 g/ha [1]: 100% | growth inhibition (GI) [2]: 0% | inhibition of growth at 50 g/ha [3]: 60% | inhibition of growth at 900 g/ha [4]: 100% | growth inhibition (GI) [5]: 0% | growth inhibition (GI) [6]: 0% | growth inhibition (GI) [7]: 0% | inhibition of growth at 100 g/ha [8]: 100% | inhibition of growth at 300 g/ha [9]: 100% | inhibition of growth at 600 g/ha [10]: 100% | inhibition of growth at 450 g/ha [11]: 100% | inhibition of growth at 600 g/ha [12]: 100% | inhibition of growth at 1200 g/ha [13]: 100% | IC50 [14]: 0.0418 µM | inhibition of growth at 450 g/ha [15]: 100% | growth inhibition (GI) [16]: 0% | IC50 [17]: 28.3 µM | inhibition of growth at 450 g/ha [18]: 100% | inhibition of growth at 150 g/ha [19]: 90% | growth inhibition (GI) [20]: 0% | inhibition of growth at 50 g/ha [21]: 100% | inhibition of growth at 450 g/ha [22]: 25% | inhibition of growth at 450 g/ha [23]: 94% | inhibition of growth at 900 g/ha [24]: 100% | growth inhibition (GI) [25]: 10% | growth inhibition (GI) [26]: 0% | inhibition of growth at 300 g/ha [27]: 98% | inhibition of growth at 100 g/ha [28]: 80% | inhibition of growth at 900 g/ha [29]: 100% | IC50 [30]: 704 µM | inhibition of growth at 100 g/ha [31]: 90% | inhibition of growth at 600 g/ha [32]: 100% | growth inhibition (GI) [33]: 10% | inhibition of growth at 200 g/ha [34]: 100%
